Data taken from patent publication US20170281651A1, “CONCOMITANT ADMINISTRATION OF GLUCOCORTICOID RECEPTOR MODULATORS AND CYP3A OR STEROIDOGENESIS INHIBITORS” (Corcept Therapeutics, Inc., priority 2017, published 2017).
“And” between values parts separate entries of the source, which are not always exact repeats. Identical values can stand only once. Like-named read-outs stand apart in the source and are kept apart here.

Legend:
Format in all cases: in vivo, human
[1] = Example 2: effect of a 400 mg single dose of ketoconazole on PK of an 8-day regimen of 300 mg or 600 mg OD mifepristone, moderate fat breakfast; settings: for Cmax / AUC(0-t) / Tmax / half-life: male, human, plasma, oral; for AUC(0-t): read-out: AUCt (AUC0-24 hours, mean); for Tmax: read-out: Tmax (median); for half-life: read-out: T1/2 (mean) (converted)
Procedure: (§1) This was an open-label study in healthy male subjects. […] The 400 mg single dose of ketoconazole was given to all subjects on day 8.
METHODOLOGY: Twelve subjects were enrolled, six in Cohort 1 and 6 in Cohort 2.
Subjects were discharged on Day 11.
Subjects were discharged on Day 11. Subjects in both cohorts returned to study center on Day 13 for safety monitoring, collection of the 120-hour PK draw, and completion of the Termination Visit procedures, followed by discharge from the study. To the extent possible, any adverse events deemed study drug-related and that were ongoing at the time of discharge from the study were followed-up to resolution or until a determination was made that the unresolved event was stable.
DIAGNOSIS AND MAIN […] FOR INCLUSION: Healthy male volunteers between the ages of 18 to 45 years of age with a body mass index (BMI) ranging between 19 and 32 kg/m2 and a weight of at least 60 kg (132 lbs) were enrolled. Subjects had no clinically significant abnormal findings on the physical examination, ECG, blood pressure, heart rate, medical history, or clinical laboratory results during screening. The QTc interval at screening was less than 450 msec.
DURATION OF TREATMENT: Up to a total of 28 days, including up to 2 weeks screening, dosing on Days 1-8, safety observation, and PK sample collection through Day 13.
Additionally, comparisons were made between the PK results of cohort 1 and 2. Pharmacokinetic parameters Cmax, T1/2 and total AUC were calculated for plasma concentrations of ketoconazole following the single dose on Day 8. Descriptive statistics (count, mean, median, standard deviation, minimum, maximum, and % coefficient of variation) were provided. Ketoconazole concentrations were listed and summarized. GM means of Cmax and total AUC were compared for the single dose in this study to the combined data of reported 400 mg single doses of ketoconazole of healthy subjects from the literature.

[2] = Example 2: safety (adverse events, physical examinations, laboratory tests)
Procedure: as §1
Safety was assessed by spontaneously reported adverse events, physical examinations, and routine clinical laboratory tests. Adverse event data were tabulated. Physical findings and laboratory test results were listed by subject.

[3] = Example 3: Phase 1 study of ketoconazole 200 mg twice daily with mifepristone 600 mg once daily with food, plasma PK incl. cross-study comparison
[4] = Examples 4-7: liver function of a patient with excess cortisol switched to reduced mifepristone dose plus ketoconazole
[5] = Example 3: safety (adverse events, laboratory tests, vital signs, ECG)
Procedure: A single dose of ketoconazole was administered on Day −1.

[6] = C1 Day 8/Day 7 (300 mg/d, with vs without 400 mg Keto)
[7] = C2 Day 8/Day 7 (600 mg/d, with vs without 400 mg Keto)
[8] = Cohort 1 (300 mg OD), Day 8 with 400 mg ketoconazole relative to Day 7 without
[9] = Cohort 2 (600 mg OD), Day 8 with 400 mg ketoconazole vs Day 7
[10] = Day 7 C2/C1 (600 vs 300 mg/d, no ketoconazole)
[11] = Day 8 C2/C1 (600 vs 300 mg/d, with 400 mg Keto)
[12] = Day 8 in the presence of 400 mg ketoconazole
[13] = 300 mg/d, MIFE 300 mg/d, C1 Day 7, no ketoconazole
[14] = 600 mg/d, MIFE 600 mg/d, C2 Day 7, no ketoconazole
[15] = MIFE 300 mg/d, C1 Day 8, + 400 mg Keto single dose
[16] = MIFE 600 mg/d, C2 Day 8, + 400 mg Keto single dose
[17] = Test: Day 17 600 mg mifepristone OD + 200 mg Ketoconazole BID, Reference: Day 12 600 mg mifepristone OD
[18] = Test: Present Study Day 17 600 mg mifepristone OD + 200 mg Ketoconazole BID, Reference: Historic Study Day 7 1200 mg mifepristone OD alone, after 34% fat meal

CC#C[C@]1(O)CC[C@H]2[C@@H]3CCC4=CC(=O)CCC4=C3[C@@H](c3ccc(N(C)C)cc3)C[C@@]21C [mifepristone, 11β-(4-dimethylaminophenyl)-17β-hydroxy-17α-(1-propynyl)-estra-4,9-dien-3-one]
Mean Ratio AUCt [1, 6]: 1.25
Mean Ratio Cmax [1, 6]: 1.19
Mean Ratio AUCt [1, 7]: 1.28
Mean Ratio Cmax [1, 7]: 1.39
increase in AUC0-24 [1, 8]: 25%
increase in Cmax [1, 8]: 20%
increase in AUC0-24 [1, 9]: 28%
increase in Cmax [1, 9]: 39%
Mean Ratio AUCt [1, 10]: 1.48
Mean Ratio Cmax [1, 10]: 1.42
AUC0-24 greater at 600 mg OD than at 300 mg OD ([1]; Day 7 without ketoconazole): 48%
Cmax greater at 600 mg OD than at 300 mg OD ([1]; Day 7 without ketoconazole): 42%
Mean Ratio AUCt [1, 11]: 1.52
Mean Ratio Cmax [1, 11]: 1.65
AUC0-24 greater at 600 mg OD than at 300 mg OD [1, 12]: 52%
Cmax greater at 600 mg OD than at 300 mg OD [1, 12]: 65%
half-life greater at 600 mg OD than at 300 mg OD [1, 12]: 13%
Cmax [1, 13]: 2.7 µg/mL
AUC(0-t) [1, 13]: 37.7 µg·h/mL
Tmax [1, 13]: 3 h
Cmax [1, 14]: 3.82 µg/mL
AUC(0-t) [1, 14]: 54.2 µg·h/mL
Tmax [1, 14]: 4 h
Cmax [1, 15]: 3.24 µg/mL
AUC(0-t) [1, 15]: 47.4 µg·h/mL
half-life [1, 15]: 84.9 h
Tmax [1, 15]: 2.1 h
Cmax [1, 16]: 5.26 µg/mL
AUC(0-t) [1, 16]: 69.1 µg·h/mL
half-life [1, 16]: 96.2 h
Tmax [1, 16]: 4 h
TEAEs considered possibly or probably related to administration ([2]; four subjects in Cohort 2 (600 mg)): dizziness, nausea, vomiting, dry mouth, and rash
SAE ([2]; mifepristone 300 or 600 mg OD 8 days + 400 mg ketoconazole Day 8): No subject experienced an SAE
subjects with at least 1 TEAE ([2]; twelve subjects, mifepristone 300 or 600 mg OD 8 days + 400 mg ketoconazole Day 8): 50%
exposure as percent of that following the highest labeled dose (1200 mg daily) ([3]; 600 mg mifepristone once daily with 200 mg ketoconazole twice daily): approximately 85%
effect of ketoconazole on exposure (90% CI vs standard 80:125 interval) ([3]; Day 17 vs Day 12): increased
difference of time 0 (pre-dose) plasma concentration ([3]; Day 17 vs Day 12, FIG. 2): ~500 ng/mL
concentrations on Day 17 compared with Day 12 ([3]; Day 17 with 200 mg ketoconazole twice daily, Day 12 mifepristone alone): higher
AUC0-24 Ratio % Test/Reference (geometric mean ratio) [3, 17]: 138.01%
Cmax Ratio % Test/Reference (geometric mean ratio) [3, 17]: 127.59%
AUC0-24 Ratio % Test/Ref (cross-study, geometric mean ratio) [3, 18]: 87.27% and 87%
Cmax Ratio % Test/Ref (cross-study, geometric mean ratio) [3, 18]: 84.64%
AUC0-24 Ratio % Test/Ref (cross-study, geometric mean ratio) ([3]; Test: Present Study Day 17 600 mg mifepristone OD + 200 mg Ketoconazole BID, Reference: Historic Study Day 7 1200 mg mifepristone OD alone, after 34% fat meal, listed as Mifepristone): 87.27%
exposure less than that of 1200 mg mifepristone in the absence of ketoconazole ([3]; mifepristone 600 mg co-administered with ketoconazole): 13-15%
liver function of the patient ([4]; daily dose reduced from 600 mg to 300 mg with concomitant ketoconazole): not significantly compromised
liver function of the patient ([4]; daily dose reduced from 900 mg to 600 mg with concomitant ketoconazole): not significantly compromised
liver function of the patient ([4]; daily dose reduced from 1200 mg to 900 mg with concomitant ketoconazole): not significantly compromised
liver function of the patient ([4]; daily dose reduced from 1500 mg to 1200 mg with concomitant ketoconazole): not significantly compromised
subjects reporting at least one TEAE ([5]; during the mifepristone/ketoconazole treatment period): 57.1%
subjects reporting at least one TEAE ([5]; during treatment with mifepristone alone (600 mg once daily)): 55.6%
subjects with elevated laboratory test results reported as drug-related TEAEs ([5]; liver enzymes (one subject), creatinine (two subjects), from Day 14): Three subjects
effects on hematology or urinalysis parameters, vital signs, or ECGs ([5]; multiple-dose mifepristone with or without multiple-dose ketoconazole): No clinically significant effects
deaths or SAEs ([5]; whole study): No deaths or SAEs
severe TEAEs ([5]; whole study): No severe TEAEs
